Measurements as given in publication PMC9823934, “New Class of Benzodiazepinone Derivatives as Pro-Death Agents Targeting BIR Domains in Cancer Cells” (Molecules, 2023).
Where two headings read alike, the source gives them in different places.

Tests used:
cIAP2-BIR1 = cIAP2-BIR1 (Homo sapiens, UniProt Q13489); assay: Trp fluorescence binding assay on cIAP2-BIR1
Procedure: (§1) The binding of FC2 derivatives to the BIR1 domains was assessed by in vitro fluorimetric assays.
(§2) The fluorescence intensity emitted by XIAP-BIR1 Trp73 or cIAP2-BIR1 Trp76 was measured by varying the concentration of the different ligands. The tests were performed with a spectral fluorimeter (Varian Cary Eclipse Fluorescence Spectrophotometer, Agilent Technologies), recording the fluorescence emission spectra between 300 and 400 nm (excitation 280 nm). XIAP-/ cIAP2-BIR1 protein samples were concentrated at 5 μM.
(§3) All the analyses were performed with GraFit version 5 (Erithacus Software Ltd., Horley, UK).

XIAP-BIR1 = XIAP-BIR1 (Homo sapiens, UniProt P98170); assay: Trp fluorescence binding assay on XIAP-BIR1
Procedure: as §1, §2, §3

MDA-MB-231 cells = assay: Cell viability assay (PrestoBlue) in MDA-MB-231, with or without TNF; assay type: cell-based, human; conditions: 48 h treatment
Procedure: MDA-MB-231 cells (human breast adenocarcinoma cell line) were grown in standard conditions (37 °C, 5% CO2) in RPMI medium supplemented with 10% serum, 1 mg·mL^−1 penicillin, 100 μg·mL^−1 streptomycin and 2 mM l-glutamine. Cell viability was evaluated by using PrestoBlue^TM Cell Viability Reagent (Thermo Fisher Scientific, Rodano, Italy). Resazurin, the active nontoxic and non-fluorescent ingredient, is continuously converted in resorufin, a red fluorescent compound, in viable cells. Cells were seeded on black-wall, clear bottom 96-well microplates at a density of 50,000 cells/well. After 24 h, cells were treated with the FC2 derivatives from 1.5 μM to 100 μM (vehicle, DMSO) in the absence or presence of TNF at the concentration of 50 ng/mL. After 48 h, the fluorescence was determined using a fluorescence plate reader (Tristar2 S, Berthold Technologies, Bad Wildbad, Germany) equipped with 560 nm excitation and 585 nm emission filters. At least five replicates were performed for each condition. The EC50, was calculated plotting the percentage of cell survival against the compound concentration (A) and fitting the data with: % survival=Tmax−TminA/A+EC50+Tmin where Tmax and Tmin are the maximum and minimum effect induced by the compounds. Analysis was performed with IgorPro 8.04 software (Lake Oswego, OR, USA).

[1] = Homo sapiens, MDA-MB-231, 48 h, MDA-MB-231, in combination with 50 ng/mL TNF, read-out: EC50 (+TNF)
[2] = Homo sapiens, MDA-MB-231, 48 h, MDA-MB-231, single agent, read-out: EC50
[3] = read-out: Kd (cIAP2-BIR1), Trp fluorescence titration, 23 °C, pH 8.0
[4] = read-out: Kd (XIAP-BIR1), Trp fluorescence titration, 23 °C, pH 8.0
[5] = Homo sapiens, MDA-MB-231, in combination with 50 ng/mL TNF, read-out: EC50 (+TNF)
[6] = Homo sapiens, MDA-MB-231, single agent, read-out: EC50

Chain of cIAP2-BIR1 (Q13489 26-99 limits assumed): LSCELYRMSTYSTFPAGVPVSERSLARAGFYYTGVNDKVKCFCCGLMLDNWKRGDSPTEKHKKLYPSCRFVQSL
Chain of XIAP-BIR1 (P98170 10-99 limits assumed): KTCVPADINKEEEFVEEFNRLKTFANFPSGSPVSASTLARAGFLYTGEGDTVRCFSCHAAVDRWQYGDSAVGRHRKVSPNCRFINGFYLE

Row | SMILES | Kd (cIAP2-BIR1) [µM] | Kd (XIAP-BIR1) [µM] | EC50 (MDA-MB-231 cells; [1]) [µM] | EC50 (MDA-MB-231 cells; [2]) [µM] | EC50 (MDA-MB-231 cells; MDA-MB-231, single agent, read-out: EC50) [µM] | Kd (cIAP2-BIR1; [3]) [µM] | Kd (XIAP-BIR1; [4]) [µM] | EC50 (MDA-MB-231 cells; [5]) [µM] | EC50 (MDA-MB-231 cells; [6]) [µM] | EC50 (MDA-MB-231 cells; MDA-MB-231, single agent)
1 | CC1(C)CC(=O)C2=C(C1)Nc1cc(C(=O)c3ccccc3)ccc1NC2c1c[nH]c2ccccc12 (centres unmarked) [4a, 7-benzoyl-11-(1H-indol-3-yl)-3,3-dimethyl-2,3,4,5,10,11-hexahydro-1H-dibenzo[b,e][1,4]diazepin-1-one] | 1.3 ± 0.7 | 6.8 ± 1.3 | 16.9 ± 7.14 | 42.8 ± 10.1 |  |  |  |  |  | 
2 | O=C1CCCC2=C1C(c1ccccc1)Nc1ccc(C(=O)c3ccccc3)cc1N2 (centres unmarked) [4d, 7-benzoyl-11-phenyl-2,3,4,5,10,11-hexahydro-1H-dibenzo[b,e][1,4]diazepin-1-one] | 21.9 ± 6.2 | 4.4 ± 2.2 | 69.2 ± 8.1 | 19.6 ± 4.23 |  |  |  |  |  | 
3 | Cc1ccc(C2Nc3ccc(C(=O)c4ccccc4)cc3NC3=C2C(=O)CCC3)cc1 (centres unmarked) [4e, 7-benzoyl-11-(p-tolyl)-2,3,4,5,10,11-hexahydro-1H-dibenzo[b,e][1,4]diazepin-1-one] | 27.6 ± 7.3 | > 50 | 47.9 ± 9.7 | 38.9 ± 7.55 |  |  |  |  |  | 
4 | O=C1CCCC2=C1C(c1ccc(C(F)(F)F)cc1)Nc1ccc(C(=O)c3ccccc3)cc1N2 (centres unmarked) [4h] | 43.4 ± 13.9 | 14.9 ± 3.8 | 48.8 ± 5.72 | 22.3 ± 8.67 |  |  |  |  |  | 
5 | O=C1CCCC2=C1C(c1ccc(Cl)cc1)Nc1ccc(C(=O)c3ccccc3)cc1N2 (centres unmarked) [4i] | > 50 | > 50 | 22.2 ± 6.67 | 25.9 ± 7.03 |  |  |  |  |  | 
6 | O=C1CCCC2=C1C(c1cccc([N+](=O)[O-])c1)Nc1ccc(C(=O)c3ccccc3)cc1N2 (centres unmarked) [4m] | 20.5 ± 4 |  |  |  |  |  |  | 3.82 ± 1.41 | 5.54 ± 1.03 | 
7 | Nc1cccc(C2Nc3ccc(C(=O)c4ccccc4)cc3NC3=C2C(=O)CCC3)c1 (centres unmarked) [4n] | 26.5 ± 1.07 | 38.1 ± 1.68 |  |  |  |  |  |  |  | loss of activity
8 | O=C1CCCC2=C1C(c1ccc(O)c(O)c1)Nc1ccc(C(=O)c3ccccc3)cc1N2 (centres unmarked) [4p] | 26.9 ± 4.3 | 15.9 ± 5.2 | 9.5 ± 4.73 | 6.92 ± 2.43 |  |  |  |  |  | 
9 | O=C1CCCC2=C1C(c1ccc3c(c1)OC(F)(F)O3)Nc1ccc(C(=O)c3ccccc3)cc1N2 (centres unmarked) [4q] | 16.4 ± 2.9 | 41.8 ± 11.7 |  |  |  |  |  | 14 ± 2.4 | 14.7 ± 4.98 | 
10 | COc1cc(C2Nc3ccc(C(=O)c4ccccc4)cc3NC3=C2C(=O)CCC3)ccc1O (centres unmarked) [4r] | 46 ± 8.33 | 33.1 ± 1.4 |  |  |  |  |  | 12.8 ± 1.9 | 7.49 ± 1.65 | 
11 | COc1cccc(C2Nc3ccc(C(=O)c4ccccc4)cc3NC3=C2C(=O)CCC3)c1O (centres unmarked) [4t] | > 50 | > 50 |  |  |  |  |  |  |  | without activity
12 | O=C1CCCC2=C1C(c1ccc(O)c([N+](=O)[O-])c1)Nc1ccc(C(=O)c3ccccc3)cc1N2 (centres unmarked) [4u] |  |  |  |  |  | > 50 | 37.3 ± 4.45 | 9.53 ± 3.61 | 17 ± 5.4 | 
13 | O=C1CCCC2=C1C(c1c[nH]c3ccccc13)Nc1ccc(C(=O)c3ccccc3)cc1N2 (centres unmarked) [FC2, 7-benzoyl-11-(1H-indol-3-yl)-2,3,4,5,10,11-hexahydro-1H-dibenzo[b,e][1,4]diazepin-1-one] |  |  |  |  |  |  |  | 9.08 ± 1.85 | 11.4 ± 2.08 | 

Continued, values first:

Row | Kd (cIAP2-BIR1) [µM] | Kd (XIAP-BIR1) [µM] | EC50 (MDA-MB-231 cells; [1]) [µM] | EC50 (MDA-MB-231 cells; [2]) [µM] | EC50 (MDA-MB-231 cells; MDA-MB-231, single agent, read-out: EC50) [µM] | Kd (cIAP2-BIR1; [3]) [µM] | Kd (XIAP-BIR1; [4]) [µM] | EC50 (MDA-MB-231 cells; [5]) [µM] | EC50 (MDA-MB-231 cells; [6]) [µM] | EC50 (MDA-MB-231 cells; MDA-MB-231, single agent) | SMILES
14 | 46.3 ± 24.8 | 30 ± 7.47 | 9.2 ± 5.75 | 21.9 ± 8.17 |  |  |  |  |  |  | O=C1CCCC2=C1C(c1cccs1)Nc1ccc(C(=O)c3ccccc3)cc1N2 (centres unmarked) [4b, 7-benzoyl-11-(thiophen-2-yl)-2,3,4,5,10,11-hexahydro-1H-dibenzo[b,e][1,4]diazepin-1-one]
15 | > 50 | > 50 | 45.3 ± 3.75 | 65 | 65.1 ± 2.43 |  |  |  |  |  | Cc1ccc(C2Nc3ccc(C(=O)c4ccccc4)cc3NC3=C2C(=O)CCC3)o1 (centres unmarked) [4c, 7-benzoyl-11-(5-methylfuran-2-yl)-2,3,4,5,10,11-hexahydro-1H-dibenzo[b,e][1,4]diazepin-1-one]
16 |  | 18 ± 5.4 | 36.3 ± 10.4 | 67.2 ± 7.6 |  |  |  |  |  |  | COc1ccc(C2Nc3ccc(C(=O)c4ccccc4)cc3NC3=C2C(=O)CCC3)cc1 (centres unmarked) [4g]
17 |  |  | 59.7 ± 14.8 | 48.2 ± 15.1 |  | 27.6 ± 3.16 | 7.26 ± 0.98 |  |  |  | O=C1CCCC2=C1C(c1ccc(O)cc1)Nc1ccc(C(=O)c3ccccc3)cc1N2 (centres unmarked) [4j]
18 |  |  | 13 ± 4.15 | 10.3 ± 4.63 |  | > 50 | > 50 |  |  |  | COc1cccc(C2Nc3ccc(C(=O)c4ccccc4)cc3NC3=C2C(=O)CCC3)c1 (centres unmarked) [4k]
19 | 38.6 ± 3.56 | 22 ± 1.18 | 16.1 ± 3.7 | 18.6 ± 2.56 |  |  |  |  |  |  | O=C1CCCC2=C1C(c1cccc(O)c1)Nc1ccc(C(=O)c3ccccc3)cc1N2 (centres unmarked) [4l]
20 | 12 ± 2.4 | 7.5 ± 2.9 | 15.4 ± 6.86 | 13.5 ± 4.67 |  |  |  |  |  |  | COc1ccc(C2Nc3ccc(C(=O)c4ccccc4)cc3NC3=C2C(=O)CCC3)cc1OC (centres unmarked) [4o]
21 | > 50 | > 50 |  |  |  |  |  | 14.6 ± 1.74 | 15.2 ± 3.63 |  | COc1ccc(C2Nc3ccc(C(=O)c4ccccc4)cc3NC3=C2C(=O)CCC3)cc1O (centres unmarked) [4s]
22 | 38 ± 2.78 | 46.4 ± 5.31 |  |  |  |  |  | 26.8 ± 12.5 | 31.4 ± 11.4 |  | COc1cc(C2Nc3ccc(C(=O)c4ccccc4)cc3NC3=C2C(=O)CCC3)cc([N+](=O)[O-])c1O (centres unmarked) [4v]
